Measured values: US8163793B2, “Proline derivatives” (Hoffman-La Roche Inc., priority 2009, dated 2012)
Counter-ions that a name gives are not always drawn.

Tests used:
Cathepsin S = Cathepsin S (UniProt P25774); assay: Cathepsin enzyme inhibition assay (fluorogenic peptide substrate Z-Val-Val-Arg-AMC), Cathepsin S; assay type: biochemical, human and mouse; settings: enzyme 1 nM, substrate 20 μM, pH 6.5; read-out: CatS IC50
Method: (§1) Cathepsin Enzyme Inhibition Assay
(§2) Enzyme activity is measured by observing the increase in fluorescence intensity caused by cleavage of a peptide substrate containing a fluorophore whose emission is quenched in the intact peptide.
(§3) Assay buffer: 100 mM potassium phosphate pH 6.5, EDTA-Na 5 mM, Triton X-100 0.001%, DDT 5 mM.
(§4) Enzymes (all at 1 nM): human and mouse Cathepsin S, Cat K, Cat B, Cat L Substrate (20 μM): Z-Val-Val-Arg-AMC, except for Cat K which uses Z-Leu-Arg-AMC (both from Bachem).
(§5) AMC=7-Amino-4-Methyl-Coumarin.
Enzyme is added to the substance dilutions in 96-well microtitre plates and the reaction is started with substrate. […] IC50 are calculated by standard methods. The results are expressed in μM in the following table.

Cat L = Cat L (UniProt P07711); assay: Cathepsin enzyme inhibition assay (fluorogenic peptide substrate Z-Val-Val-Arg-AMC), Cathepsin L; assay type: biochemical, human and mouse; settings: enzyme 1 nM, substrate 20 μM, pH 6.5; read-out: CatL IC50
Method: as §1, §2, §3, §4, §5
Excitation 360 nm, Emission 465 nm.
Enzyme is added to the substance dilutions in 96-well microtitre plates and the reaction is started with substrate. Fluorescence emission is measured over 20 minutes, during which time a linear increase is observed in the absence of inhibitor. IC50 are calculated by standard methods. The results are expressed in μM in the following table.

SMILES | IC50 (Cathepsin S) [nM] | IC50 (Cat L) [nM]
C=CCN[C@@H](C(=O)N1C[C@H](S(=O)(=O)c2ccccc2OCC=C)C[C@H]1C(=O)NC1(C#N)CC1)c1ccc(Cl)cc1 [Example 455, (2S,4R)-1-[(R)-2-Allylamino-2-(4-chloro-phenyl)-acetyl]-4-(2-allyloxy-benzenesulfonyl)-pyrrolidine-2-carboxylic acid (1-cyano-cyclopropyl)-amide] | 77 | ≥ 25000
N#CC1(NC(=O)[C@@H]2C[C@@H](S(=O)(=O)c3ccccc3C(F)(F)F)CN2C(=O)C2CCC(C(F)(F)F)CC2)CC1 (stereo partly drawn) [Example 105, (2S,4R)-4-(2-Trifluoromethyl-benzenesulfonyl)-1-(4-trifluoromethyl-cyclohexanecarbonyl)-pyrrolidine-2-carboxylic acid (1-cyano-cyclopropyl)-amide] | 0.3 | ≥ 25000
N#CC1(NC(=O)[C@@H]2C[C@@H](S(=O)(=O)c3ccccc3Cl)CN2C(=O)C2(c3cccc(C(F)(F)F)c3)CC2)CC1 [Example 429, (2S,4R)-4-(2-chlorophenylsulfonyl)-N-(1-cyanocyclopropyl)-1-(1-(3-(trifluoromethyl)phenyl)cyclopropanecarbonyl)pyrrolidine-2-carboxamide] | 0.365 | 460
N#CC1(NC(=O)C2C[C@@H](S(=O)(=O)c3ccc(OCC(F)(F)F)cc3Cl)CN2C=O)CC1 (stereo partly drawn) [Example 182, (R)-4-[2-Chloro-4-(2,2,2-trifluoro-ethoxy)-benzenesulfonyl]-1-formyl-pyrrolidine-2-carboxylic Acid (1-cyano-cyclopropyl)-amide] | 9.7 | ≥ 25000
Cc1cc(N2C[C@H](S(=O)(=O)c3ccccc3C(F)(F)F)C[C@H]2C(=O)NC2(C#N)CC2)n(CC(C)C)n1 [Example 340, (2S,4R)-1-(2-Isobutyl-5-methyl-2H-pyrazol-3-yl)-4-(2-trifluoromethyl-benzenesulfonyl)-pyrrolidine-2-carboxylic acid (1-cyano-cyclopropyl)-amide] | 0.975 | 26400
Cc1cc(Cl)ccc1S(=O)(=O)[C@@H]1C[C@@H](C(=O)NC2(C#N)CC2)N(C(=O)OC(C)(C)C)C1 [Example 40, (2S,4R)-4-(4-Chloro-2-methyl-benzenesulfonyl)-2-(1-cyano-cyclopropylcarbamoyl)-pyrrolidine-1-carboxylic acid tert-butyl ester] | 5.2 | 41400
CC(C)(C)OC(=O)N1C[C@H](S(=O)(=O)c2ccc(N3CCC(F)(F)CC3)cc2Cl)C[C@H]1C(=O)NC1(C#N)CC1 [Example 152, (2S,4R)-4-[2-Chloro-4-(4,4-difluoro-piperidin-1-yl)-benzenesulfonyl]-2-(1-cyano-cyclopropylcarbamoyl)-pyrrolidine-1-carboxylic acid tert.-butyl ester] | 2.2 | 30800
N#CC1(NC(=O)[C@@H]2C[C@@H](S(=O)(=O)c3ccc(F)cc3C(F)(F)F)CN2C(=O)C2(C(F)(F)F)CC2)CC1 [Example 209, (2S,4R)-4-(4-Fluoro-2-trifluoromethyl-benzenesulfonyl)-1-(1-trifluoromethyl-cyclopropanecarbonyl)-pyrrolidine-2-carboxylic acid (1-cyano-cyclopropyl)-amide] | 0.2 | ≥ 25000
Cc1cc(N2C[C@H](S(=O)(=O)c3ccccc3C(F)(F)F)C[C@H]2C(=O)NC2(C#N)CC2)n(C)n1 [Example 300, (2S,4R)-1-(2,5-Dimethyl-2H-pyrazol-3-yl)-4-(2-trifluoromethyl-benzenesulfonyl)-pyrrolidine-2-carboxylic acid (1-cyano-cyclopropyl)-amide] | 0.885 | 50700
CC(C)(C)C(=O)N1C[C@H](S(=O)(=O)c2ccc(Cl)cc2Cl)C[C@H]1C(=O)NC1(C#N)CC1 [Example 225, (2S,4R)-4-(2,4-Dichloro-benzenesulfonyl)-1-(2,2-dimethyl-propionyl)-pyrrolidine-2-carboxylic Acid (1-cyano-cyclopropyl)-amide] | 1.2 | 18300
N#CC1(NC(=O)[C@@H]2C[C@@H](S(=O)(=O)c3ccc(Cl)cc3Cl)CN2C(=O)CC(F)(F)F)CC1 [Example 227, (2S,4R)-4-(2,4-Dichloro-benzenesulfonyl)-1-(3,3,3-trifluoro-propionyl)-pyrrolidine-2-carboxylic acid (1-cyano-cyclopropyl)-amide] | 0.6 | 15600
Cc1cc(N2C[C@H](S(C)(=O)=O)C[C@H]2C(=O)NC2(C#N)CC2)n(Cc2ccccc2)n1 [Example 449, (2S,4R)-1-(2-Benzyl-5-methyl-2H-pyrazol-3-yl)-4-methanesulfonyl-pyrrolidine-2-carboxylic Acid (1-cyano-cyclopropyl)-amide] | 10500 | ≥ 25000
CC(C)C(=O)N1C[C@H](S(=O)(=O)c2ccc(Cl)cc2Cl)C[C@H]1C(=O)NC1(C#N)CC1 [Example 226, (2S,4R)-4-(2,4-Dichloro-benzenesulfonyl)-1-isobutyryl-pyrrolidine-2-carboxylic acid (1-cyano-cyclopropyl)-amide] | 0.6 | 13500
CC(C)OC(=O)N1C[C@H](S(=O)(=O)c2ccccc2Cl)C[C@H]1C(=O)NC1(C#N)CC1 [Example 97, (2S,4R)-4-(2-Chloro-benzenesulfonyl)-2-(1-cyano-cyclopropylcarbamoyl)-pyrrolidine-1-carboxylic acid Isopropyl Ester] | 2.4 | 22800
N#CC1(NC(=O)[C@@H]2C[C@@H](S(=O)(=O)c3ccccc3Cl)CN2c2nc(Cl)ns2)CC1 [Example 486, (2S,4R)-4-(2-Chloro-benzenesulfonyl)-1-(3-chloro-[1,2,4]thiadiazol-5-yl)-pyrrolidine-2-carboxylic acid (1-cyano-cyclopropyl)-amide] | 0.85 | 22000
CC(=O)N[C@H]1CC[C@H](CC(=O)N2C[C@H](S(=O)(=O)c3ccc(OCC(F)(F)F)cc3Cl)C[C@H]2C(=O)NC2(C#N)CC2)CC1 [Example 274, (2S,4R)-1-[2-(4-Acetylamino-cyclohexyl)-acetyl]-4-[2-chloro-4-(2,2,2-trifluoro-ethoxy)-benzenesulfonyl]-pyrrolidine-2-carboxylic acid (1-cyano-cyclopropyl)-amide] | 0.935 | 9130
CC(=O)N1C[C@H](S(=O)(=O)c2ccc(OC(C)C(F)(F)F)cc2Cl)C[C@H]1C(=O)NC1(C#N)CC1 (stereo partly drawn) [Example 132, (2S,4R)-1-Acetyl-4-[2-chloro-4-(2,2,2-trifluoro-1-methyl-ethoxy)-benzenesulfonyl]-pyrrolidine-2-carboxylic acid (1-cyano-cyclopropyl)-amide] | 3.8 | 35000
Cc1cc(N2C[C@H](S(=O)(=O)c3ccccc3Cl)C[C@H]2C(=O)NC2(C#N)CC2)n(C2CCC2)n1 [Example 353, (2S,4R)-4-(2-Chloro-benzenesulfonyl)-1-(2-cyclobutyl-5-methyl-2H-pyrazol-3-yl)-pyrrolidine-2-carboxylic acid (1-cyano-cyclopropyl)-amide] | 0.99 | 13500
Cc1cc(N2C[C@H](S(=O)(=O)c3ccccc3C(F)(F)F)C[C@H]2C(=O)NC2(C#N)CC2)n(-c2ccc(Cl)cc2)n1 [Example 194, (2S,4R)-1-[2-(4-Chloro-phenyl)-5-methyl-2H-pyrazol-3-yl]-4-(2-trifluoromethyl-benzenesulfonyl)-pyrrolidine-2-carboxylic acid (1-cyano-cyclopropyl)-amide] | 0.4 | 16600
CCN1CCN(c2ccc(S(=O)(=O)[C@@H]3C[C@@H](C(=O)NC4(C#N)CC4)N(C(=O)OC(C)(C)C)C3)c(Cl)c2)CC1 [Example 138, (2S,4R)-4-[2-Chloro-4-(4-ethyl-piperazin-1-yl)-benzenesulfonyl]-2-(1-cyano-cyclopropylcarbamoyl)-pyrrolidine-1-carboxylic acid tert.-butyl ester] | 3.4 | 28600
N#CC1(NC(=O)[C@@H]2C[C@@H](S(=O)(=O)c3ccccc3C(F)(F)F)CN2c2ccc(F)c(Cl)c2)CC1 [Example 394, (2S,4R)-1-(3-Chloro-4-fluoro-phenyl)-4-(2-trifluoromethyl-benzenesulfonyl)-pyrrolidine-2-carboxylic acid (1-cyano-cyclopropyl)-amide] | 2.95 | ≥ 25000
CC(C)(C)OC(=O)N[C@H]1CC[C@H](CC(=O)N2C[C@H](S(=O)(=O)c3ccc(OCC(F)(F)F)cc3Cl)C[C@H]2C(=O)NC2(C#N)CC2)CC1 [Example 264, (4-{2-[(2S,4R)-4-[2-Chloro-4-(2,2,2-trifluoro-ethoxy)-benzenesulfonyl]-2-(1-cyano-cyclopropylcarbamoyl)-pyrrolidin-1-yl]-2-oxo-ethyl}-cyclohexyl)-carbamic Acid Tert-butyl ester] | 0.495 | 8380
N#CC1(NC(=O)[C@@H]2C[C@@H](S(=O)(=O)c3ccccc3Cl)CN2)CCC1 [Example 45, (2S,4R)-4-(2-Chloro-benzenesulfonyl)-pyrrolidine-2-carboxylic acid (1-cyano-cyclobutyl)-amide Hydrochloride] | 378 | ≥ 25000
